Converted amounts (≈) assume the structure as drawn.

The subject of data set [1] is KB: human oral epidormaid Carcinama cell. In words: anti-cancer activity test (cytotoxicity), KB. To be noted: Homo sapiens; KB cells. The class given is cell-based. As to the method: (§1) The compounds were further screened on 60 human cancer cell lines by Developmental Therapeutics Program Human Tumor Cell Line Screen set up by the National Cancer Institute of the U. S. A. The screening procedures are described briefly hereinafter. Cell suspensions that were diluted according to the particular cell type and the expected target cell density (5000-40,000 cells per well based on cell growth characteristics) were added by pipet (100 μL) into 96-well microtiterplates. Inoculates were allowed a preincubation period of 24 hours at 37° C. for stabilization. Dilutions at twice the intended test concentration were added in 100 μL aliquots to the microtiter plate wells at time zero. Usually, test compounds were evaluated at five 10-fold dilutions. In routine testing, the highest well concentration was 10^−4 M, but for the standard agents the highest well concentration used depended on the agent. Incubations lasted for 48 hours in 5% CO2 atmosphere and 100% humidity. The cells were assayed by using the sulforhodamine B assay. A plate reader was used to read the optical densities, and a microcomputer processed the optical densities into the special concentration parameters. The results of these tests with representative compounds of the present invention appear in Table 1 and 2

In a further data set the test system is human cancer cell lines. As to the kind of experiment: anti-cancer activity test, overall over the cell line panel. Format: cell-based. To be noted: summary of Table 1. As to the method:
as §1

A further data set concerns the target T1, HIV-1 RT(p66) (Human immunodeficiency virus type 1 group M subtype B, UniProt P04585).
T1 construct: 1-10 at 200 μg/ml to HIV-1 RT(p66)
In words: anti-virus activity test, HIV-1 RT(p66) inhibition. The class given is biochemical. To be noted: for inhibition at 200 µg/mL: at 200 μg/ml.

In data set [2] the test system is LNCaP: human prostate cell. As to the kind of experiment: anti-cancer activity test (cytotoxicity), LNCaP. Format: cell-based. To be noted: Homo sapiens; LNCaP cells.
The test system of data set [3] is HT-1088: human fibrosarcoma cell. As to the kind of experiment: anti-cancer activity test (cytotoxicity), HT. The class given is cell-based. To be noted: Homo sapiens; HT cells.
Data set [4] concerns ZR-75-1: human breast cell. In words: anti-cancer activity test (cytotoxicity), ZR-75-1. The note with it: Homo sapiens; ZR-75-1 cells. The class given is cell-based.
Another data set concerns Col2: human colon cell. As to the kind of experiment: anti-cancer activity test (cytotoxicity), Col2. Format: cell-based. To be noted: Homo sapiens; Col2 cells.
The subject of data set [5] is A431: human squamous cell. In words: anti-cancer activity test (cytotoxicity), A431. The class given is cell-based. The note with it: Homo sapiens, A-431; A431 cells.
The next data set concerns Lu1: human lung cell. In words: anti-cancer activity test (cytotoxicity), Lu1. The note with it: Homo sapiens; Lu1 cells. Format: cell-based.
Data set [6] deals with P-388: mouse lymphaid Macrophage cell. As to the kind of experiment: anti-cancer activity test (cytotoxicity), P-388. Format: cell-based. The note with it: Mus musculus, P388; P-388 cells.
Another data set has as its system U373: human glioma cell. As to the kind of experiment: anti-cancer activity test (cytotoxicity), U373. Format: cell-based. The note with it: Homo sapiens, U373 MG; U373 cells.
The subject of data set [7] is Mel2: human melanoma cell. In words: anti-cancer activity test (cytotoxicity), Mel2. The class given is cell-based. The note with it: Homo sapiens; Mel2 cells.
The subject of data set [8] is KB-V: drug resisteant KB cell. As to the kind of experiment: anti-cancer activity test (cytotoxicity), KB-V. The class given is cell-based, human. The note with it: Homo sapiens, KB-V cells.
Another data set deals with BC-1: human breast cell. In words: anti-cancer activity test (cytotoxicity), BC 1. The class given is cell-based. To be noted: Homo sapiens, BC1; BC 1 cells.

Turning to `N=C(N)NCC(=O)Nc1ccc2c(c1)C(=O)c1ccc(NC(=O)CNC(=N)N)cc1C2=O` [Example 8, 2,6-di(guanidinoacetamido)anthraquinone], the IC50 in [1] came out at 1.4 mg/L (≈ 3.21 µM); in data set [2] it was 7.2 mg/L (≈ 16.5 µM); in data set [3] it was 6 mg/L (≈ 13.7 µM); in [4], 7 mg/L (≈ 16 µM); with Col2: human colon cell, 3.3 mg/L (≈ 7.56 µM); in [5], 5.8 mg/L (≈ 13.3 µM). Further, the IC50 is 12.2 mg/L (≈ 28 µM) in the data set on Lu1: human lung cell; over 5 mg/L in data set [6]; 8.6 mg/L (≈ 19.7 µM) with U373: human glioma cell; 12.7 mg/L (≈ 29.1 µM) in data set [7]; over 20 mg/L in data set [8] (with vinblastine (+VLB)); over 20 mg/L in data set [8] (without vinblastine (−VLB)). Moreover, in the data set on BC-1: human breast cell, the IC50 is 5 mg/L (≈ 11.5 µM). Further, the “cytotoxic activity to cancer cell lines (in words)” value with human cancer cell lines was “more effective to most cancer cell lines”. This compound also had an inhibition at 200 µg/mL against HIV-1 RT(p66) (HIV-1 RT(p66)) of 29.3%.

As for `N=C(N)NCC(=O)Nc1ccc2c(c1NC(=O)CNC(=N)N)C(=O)c1ccccc1C2=O` [Example 10, 1,2-di(guanidinoacetamido)anthraquinone], the IC50 in data set [1] is 3.2 mg/L (≈ 7.33 µM); on HIV-1 RT(p66) (HIV-1 RT(p66), read-out: IC50 (μg/ml) (converted)), 69.4 µM; in data set [2], 18 mg/L (≈ 41.2 µM); in [3] it was 8.9 mg/L (≈ 20.4 µM); in data set [4] it was over 20 mg/L; in the data set on Col2: human colon cell it was over 20 mg/L. Besides, the IC50 in [5] was 1.7 mg/L (≈ 3.9 µM); with Lu1: human lung cell, over 20 mg/L; in data set [6], over 5 mg/L; in the data set with U373: human glioma cell, 6.9 mg/L (≈ 15.8 µM); in [7], over 20 mg/L; in data set [8] (with vinblastine (+VLB)), 6.3 mg/L (≈ 14.4 µM). The figures for the IC50 (in [8] (without vinblastine (−VLB)); in the data set on BC-1: human breast cell) were over 20 mg/L and 10.2 mg/L (≈ 23.4 µM), respectively. For the same compound, the “cytotoxic activity to cancer cell lines (in words)” value with human cancer cell lines was “more effective to most cancer cell lines”. The same compound displayed an inhibition at 200 µg/mL on HIV-1 RT(p66) (HIV-1 RT(p66)) of 92.3%. Further, on HIV-1 RT(p66) (at the concentration of 200 μg/ml), the “activity inhibition / anti-virus ability (in words)” value is “excellent effect on activity inhibition”.

As a reminder, the inhibition is the share of the control response that was lost under treatment. The low end stands for a response near the control, the high end for a response far below the control.

Source of the values: patent US6777564B2, “Anthraquinone compound” (Industrial Technology Research Institute, priority 2001, dated 2004).
